Test [1] addresses T1, Single-strand selective monofunctional uracil DNA glycosylase (Homo sapiens) (UniProt Q53HV7).
T1 sequence (whole entry): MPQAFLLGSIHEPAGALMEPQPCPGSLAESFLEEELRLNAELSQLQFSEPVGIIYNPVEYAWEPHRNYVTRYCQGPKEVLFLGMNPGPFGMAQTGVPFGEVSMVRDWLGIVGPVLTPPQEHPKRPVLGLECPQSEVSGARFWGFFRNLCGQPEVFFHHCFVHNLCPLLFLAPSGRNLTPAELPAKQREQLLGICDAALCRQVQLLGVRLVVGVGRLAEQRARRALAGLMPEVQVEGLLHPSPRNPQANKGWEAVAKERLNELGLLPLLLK
The settings on record: Compound Concentration 10.0 uM.
Description: Inhibition of SMUG1 by quantifying inhibition of SMUG1-mediated cleavage and dissociation of quenched duplex DNA oligonucleotides, measured as fluorescence at 594 nm. To generate a functional strand incision and increase turn-over this assay is coupled to APE1.

Test [2] concerns the target Uracil-DNA glycosylase (Homo sapiens) (UniProt P13051). Particulars: Compound Concentration 10.0 uM, Hit No.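 Note: UNG excision on a quenched double-stranded DNA oligo probe, with APE1 added for strand incision and turnover, read as fluorescence at 594 nm as strands separate.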
Description: Inhibition of UNG by quantifying inhibition of UNG-mediated cleavage and dissociation of quenched duplex DNA oligonucleotides, measured as fluorescence at 594 nm. To generate a functional strand incision and increase turn-over this assay is coupled to APE1.
In test [3] the target is G/T mismatch-specific thymine DNA glycosylase (Homo sapiens) (UniProt Q13569). The settings on record: Compound Concentration 10.0 uM.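 Note: human TDG cleavage of quenched duplex DNA oligonucleotides coupled to APE1, strand release read as fluorescence at 594 nm, inhibition of TDG activity.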
Description: Inhibition of TDG by quantifying inhibition of TDG-mediated cleavage and dissociation of quenched duplex DNA oligonucleotides, measured as fluorescence at 594 nm. To generate a functional strand incision and increase turn-over this assay is coupled to APE1.
Test [4] has as its target DNA-3-methyladenine glycosylase (Homo sapiens) (UniProt P29372). The settings on record: Compound Concentration 10.0 uM.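 Note: enzyme assay where MPG cuts a quenched duplex DNA oligonucleotide probe, paired with APE1 for strand incision and turnover, read as fluorescence at 594 nm.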
Description: Inhibition of MPG by quantifying inhibition of MPG-mediated cleavage and dissociation of quenched duplex DNA oligonucleotides, measured as fluorescence at 594 nm. To generate a functional strand incision and increase turn-over this assay is coupled to APE1.
Test [5] has as its target T2, Endonuclease III-like protein 1 (Homo sapiens) (UniProt P78549).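 Note: enzyme assay tracking NTHL1 cutting and release of a quenched double-stranded DNA oligo substrate, read as fluorescence at 594 nm.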
T2 sequence (whole entry): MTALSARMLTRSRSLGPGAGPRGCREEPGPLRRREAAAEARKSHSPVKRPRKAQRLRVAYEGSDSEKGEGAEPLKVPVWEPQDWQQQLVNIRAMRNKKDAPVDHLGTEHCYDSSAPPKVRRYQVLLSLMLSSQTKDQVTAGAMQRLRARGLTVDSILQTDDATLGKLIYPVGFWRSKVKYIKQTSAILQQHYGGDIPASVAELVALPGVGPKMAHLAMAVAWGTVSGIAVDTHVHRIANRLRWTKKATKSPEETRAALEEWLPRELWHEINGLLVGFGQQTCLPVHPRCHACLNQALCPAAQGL
Particulars: Compound Concentration 10.0 uM.
Description: Inhibition of NTHL1 by quantifying inhibition of NTHL1-mediated cleavage and dissociation of quenched duplex DNA oligonucleotides, measured as fluorescence at 594 nm.

For test [6], the target named is Methyl-CpG-binding domain protein 4 (Homo sapiens) (UniProt O95243). The settings on record: Compound Concentration 10.0 uM.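 Note: MBD4 activity read as fluorescence at 594 nm from cleavage and release of a quenched duplex DNA oligonucleotide, with APE1 coupled to incise the strand and raise turnover.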
Description: Inhibition of MBD4 by quantifying inhibition of MBD4-mediated cleavage and dissociation of quenched duplex DNA oligonucleotides, measured as fluorescence at 594 nm. To generate a functional strand incision and increase turn-over this assay is coupled to APE1.
The target in test [7] is N-glycosylase/DNA lyase (Homo sapiens) (UniProt O15527). The settings on record: Compound Concentration 10.0 uM.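 Note: OGG1 cleavage of a quenched duplex DNA oligonucleotide, coupled to APE1 for strand incision, read as fluorescence at 594 nm.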
Description: Inhibition of OGG1 by quantifying inhibition of OGG1-mediated cleavage and dissociation of quenched duplex DNA oligonucleotides, measured as fluorescence at 594 nm. To generate a functional strand incision and increase turn-over this assay is coupled to APE1.
The target in test [8] is T3, Adenine DNA glycosylase (Homo sapiens) (UniProt Q9UIF7).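 Note: human MUTYH activity read as 594 nm fluorescence from cleavage and release of a quenched DNA duplex, coupled with APE1 for strand incision, lower signal meaning inhibition.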
T3 sequence (whole entry): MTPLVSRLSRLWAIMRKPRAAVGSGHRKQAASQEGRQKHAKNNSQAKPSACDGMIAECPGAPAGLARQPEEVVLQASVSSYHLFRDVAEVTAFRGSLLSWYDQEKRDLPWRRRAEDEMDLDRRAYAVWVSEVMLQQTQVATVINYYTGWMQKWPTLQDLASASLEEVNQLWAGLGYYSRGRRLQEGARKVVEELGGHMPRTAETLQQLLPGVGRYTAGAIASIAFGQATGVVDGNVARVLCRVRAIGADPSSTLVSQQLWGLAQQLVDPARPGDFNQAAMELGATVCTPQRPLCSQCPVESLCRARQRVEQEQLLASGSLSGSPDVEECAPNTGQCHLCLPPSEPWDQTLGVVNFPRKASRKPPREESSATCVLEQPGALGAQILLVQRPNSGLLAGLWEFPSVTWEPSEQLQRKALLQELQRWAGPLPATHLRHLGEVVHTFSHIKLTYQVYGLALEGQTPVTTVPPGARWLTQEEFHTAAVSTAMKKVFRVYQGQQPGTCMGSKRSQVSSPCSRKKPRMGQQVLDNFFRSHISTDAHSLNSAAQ
The settings on record: Compound Concentration 10.0 uM, Hit No.
Description: Inhibition of MUTYH by quantifying inhibition of MUTYH-mediated cleavage and dissociation of quenched duplex DNA oligonucleotides, measured as fluorescence at 594 nm. To generate a functional strand incision and increase turn-over this assay is coupled to APE1.

Test [9] concerns the target Endonuclease 8-like 1 (Homo sapiens) (UniProt Q96FI4). Particulars: Compound Concentration 10.0 uM, Hit No.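 Note: fluorescence at 594 nm from quenched duplex DNA oligonucleotides released by NEIL1 cleavage and strand separation, reported as reduction of this enzyme activity.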
Description: Inhibition of NEIL1 by quantifying inhibition of NEIL1-mediated cleavage and dissociation of quenched duplex DNA oligonucleotides, measured as fluorescence at 594 nm.
Test [10] addresses T4, Endonuclease 8-like 2 (Homo sapiens) (UniProt Q969S2).
T4 sequence (whole entry): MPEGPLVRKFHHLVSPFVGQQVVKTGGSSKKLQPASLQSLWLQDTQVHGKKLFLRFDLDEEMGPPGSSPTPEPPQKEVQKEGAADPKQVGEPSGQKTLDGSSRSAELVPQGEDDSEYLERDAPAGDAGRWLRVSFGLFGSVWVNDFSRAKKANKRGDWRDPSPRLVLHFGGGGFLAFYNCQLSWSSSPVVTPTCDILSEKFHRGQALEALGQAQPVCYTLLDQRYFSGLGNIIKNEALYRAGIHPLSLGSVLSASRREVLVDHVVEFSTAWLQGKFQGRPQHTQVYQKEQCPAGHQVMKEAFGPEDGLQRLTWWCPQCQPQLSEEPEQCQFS
Particulars: Compound Concentration 10.0 uM, Hit No.
Description: Inhibition of NEIL2 by quantifying inhibition of NEIL2-mediated cleavage and dissociation of quenched duplex DNA oligonucleotides, measured as fluorescence at 594 nm.

The inhibition is the change of the read-out against control, counted positive when it falls.

Where a SMILES comes first, the peptide text is derived from it.

Sequence of Methyl-CpG-binding domain protein 4 (Homo sapiens) (O95243 whole entry, the tested form may be a part): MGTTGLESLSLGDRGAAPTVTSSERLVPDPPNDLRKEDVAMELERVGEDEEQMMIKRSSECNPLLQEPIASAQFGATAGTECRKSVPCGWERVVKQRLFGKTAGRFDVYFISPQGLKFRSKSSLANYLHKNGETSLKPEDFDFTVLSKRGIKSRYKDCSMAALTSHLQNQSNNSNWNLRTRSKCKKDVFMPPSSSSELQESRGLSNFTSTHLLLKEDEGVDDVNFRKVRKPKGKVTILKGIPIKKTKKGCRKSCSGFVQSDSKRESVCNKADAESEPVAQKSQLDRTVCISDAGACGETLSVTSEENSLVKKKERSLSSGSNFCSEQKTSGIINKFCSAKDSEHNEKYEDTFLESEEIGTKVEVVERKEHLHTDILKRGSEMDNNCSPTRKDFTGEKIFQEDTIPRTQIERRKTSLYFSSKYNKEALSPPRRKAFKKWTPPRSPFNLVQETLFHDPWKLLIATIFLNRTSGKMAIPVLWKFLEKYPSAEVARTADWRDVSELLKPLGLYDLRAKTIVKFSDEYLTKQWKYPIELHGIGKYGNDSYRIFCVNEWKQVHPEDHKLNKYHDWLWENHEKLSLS
Sequence of N-glycosylase/DNA lyase (Homo sapiens) (O15527 whole entry): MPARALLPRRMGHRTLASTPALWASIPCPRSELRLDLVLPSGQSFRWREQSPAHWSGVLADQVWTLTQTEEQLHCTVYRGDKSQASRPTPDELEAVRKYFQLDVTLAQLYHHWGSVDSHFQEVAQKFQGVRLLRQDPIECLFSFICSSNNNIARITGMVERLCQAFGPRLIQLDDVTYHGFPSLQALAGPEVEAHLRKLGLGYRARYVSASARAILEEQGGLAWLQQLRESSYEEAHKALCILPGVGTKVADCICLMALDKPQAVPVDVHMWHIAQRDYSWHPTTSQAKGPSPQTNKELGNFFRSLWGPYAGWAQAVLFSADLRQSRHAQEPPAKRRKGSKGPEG
Sequence of Uracil-DNA glycosylase (Homo sapiens) (P13051 whole entry): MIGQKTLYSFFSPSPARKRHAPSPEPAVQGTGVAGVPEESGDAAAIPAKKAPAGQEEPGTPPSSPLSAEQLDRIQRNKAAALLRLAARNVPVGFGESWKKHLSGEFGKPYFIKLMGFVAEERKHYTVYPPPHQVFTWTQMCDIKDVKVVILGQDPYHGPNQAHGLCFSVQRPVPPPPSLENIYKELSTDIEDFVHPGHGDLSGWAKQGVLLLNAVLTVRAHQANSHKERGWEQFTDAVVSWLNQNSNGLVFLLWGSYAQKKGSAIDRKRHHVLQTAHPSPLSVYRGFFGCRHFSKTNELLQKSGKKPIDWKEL
Sequence of G/T mismatch-specific thymine DNA glycosylase (Homo sapiens) (Q13569 whole entry): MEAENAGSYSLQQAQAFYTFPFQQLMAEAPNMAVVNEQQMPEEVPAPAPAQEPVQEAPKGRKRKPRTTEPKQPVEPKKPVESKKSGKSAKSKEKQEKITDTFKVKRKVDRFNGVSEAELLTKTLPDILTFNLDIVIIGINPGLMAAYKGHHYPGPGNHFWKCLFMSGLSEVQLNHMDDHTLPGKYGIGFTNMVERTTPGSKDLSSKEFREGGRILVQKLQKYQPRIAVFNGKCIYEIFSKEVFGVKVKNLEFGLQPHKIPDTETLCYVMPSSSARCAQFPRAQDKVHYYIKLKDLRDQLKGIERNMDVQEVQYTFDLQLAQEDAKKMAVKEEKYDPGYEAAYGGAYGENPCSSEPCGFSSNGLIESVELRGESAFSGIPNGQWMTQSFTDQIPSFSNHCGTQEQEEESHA
Sequence of Endonuclease 8-like 1 (Homo sapiens) (Q96FI4 whole entry): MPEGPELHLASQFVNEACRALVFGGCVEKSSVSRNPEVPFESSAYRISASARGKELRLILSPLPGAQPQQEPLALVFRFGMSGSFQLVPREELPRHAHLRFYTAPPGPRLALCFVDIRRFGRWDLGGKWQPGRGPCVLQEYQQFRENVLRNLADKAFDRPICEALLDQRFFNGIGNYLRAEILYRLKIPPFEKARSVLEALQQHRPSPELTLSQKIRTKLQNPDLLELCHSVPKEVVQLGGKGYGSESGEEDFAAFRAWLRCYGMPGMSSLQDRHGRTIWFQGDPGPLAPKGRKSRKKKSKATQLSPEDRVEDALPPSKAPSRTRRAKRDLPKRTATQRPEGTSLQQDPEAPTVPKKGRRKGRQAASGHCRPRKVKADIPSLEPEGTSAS
Sequence of DNA-3-methyladenine glycosylase (Homo sapiens) (P29372 whole entry): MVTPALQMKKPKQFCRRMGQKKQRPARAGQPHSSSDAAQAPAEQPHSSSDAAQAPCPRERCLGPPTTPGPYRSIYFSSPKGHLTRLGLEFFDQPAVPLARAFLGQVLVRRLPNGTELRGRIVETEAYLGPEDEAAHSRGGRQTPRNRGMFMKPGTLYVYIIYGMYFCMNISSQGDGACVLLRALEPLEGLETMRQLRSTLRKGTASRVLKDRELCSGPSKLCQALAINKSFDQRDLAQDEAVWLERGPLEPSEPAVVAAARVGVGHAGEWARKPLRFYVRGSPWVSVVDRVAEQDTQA

Regarding `COc1cc([N+](=O)[O-])ccc1NC(=O)c1ccccc1O`, the inhibition in test [1] (Hit No) is 9.42%; in test [2] it was -6.06%; in test [3] (Hit No) it was 9.09%; in test [4] (Hit No), -4.2%; in test [5] (Hit No), -0.258%; in test [6] (Hit No), 0.275%. Besides, the inhibition in test [7] (Hit No) was -1.87%; in test [8], 4.12%; in test [9], 3.86%; in test [10] it was 8.06%.
For the compound `CC[C@H](C)[C@H](NC(=O)[C@H](Cc1ccc(O)cc1)NC(=O)[C@@H](NC(=O)[C@H](CCCNC(=N)N)NC(=O)[C@@H](N)CC(=O)O)C(C)C)C(=O)N[C@@H](Cc1cnc[nH]1)C(=O)N[C@H](C)C(=O)O` (HELM PEPTIDE1{D.R.V.Y.I.H.[dA]}$$$$V2.0), the inhibition is -8.77% in [1] (Hit No); -2.81% in test [2]; 1.59% in test [3] (Hit No); -4.39% in test [4] (Hit No); 17.1% in [5] (Hit No); 6.33% in test [6] (Hit No). For the same compound, the inhibition in test [7] (Hit No) is -9.35%; in test [8] it was -8.51%; in test [9], 9.79%; in test [10] it was -1.88%.
As for `FC(F)(F)c1ccccc1-c1cc(C(F)(F)F)c2[nH]c(C3=NOC4(CCCCC4)C3)nc2c1`, the inhibition in [1] (Hit No) was -0.41%; in [2], -6.03%; in test [3] (Hit No) it was 6.11%; in test [4] (Hit No), 0.733%; in [5] (Hit No), -6.04%; in [6] (Hit No) it was 2.91%. Besides, the inhibition in test [7] (Hit No) is -6.32%; in test [8] it was -3.71%; in [9] it was 0.00926%; in test [10] it was 0.669%.
As for `CC1(C)CCC[C@]2(C)[C@@H](C=O)C(C=O)=CC[C@@H]12`, the inhibition in test [1] (Hit No) is 16.1%; in [2], 2.98%; in [3] (Hit No), 49%; in [4] (Hit No), 14.4%; in test [5] (Hit No), -1.08%; in test [6] (Hit No), 54.4%. The inhibition is 88.4% in [7] (Hit Yes), 80.5% in test [8], -1.47% in test [9] and 8.57% in [10].
For the compound `CC(C)(C)C1CCc2c(sc(NC(=O)c3ccco3)c2C(=O)O)C1` (stereo not given), the inhibition was -0.636% in test [1] (Hit No); -0.0242% in [2]; 25.9% in test [3] (Hit No); -0.565% in test [4] (Hit No); 33.6% in test [5] (Hit No); 32.2% in test [6] (Hit No). Moreover, the inhibition in test [7] (Hit No) came to 36.3%; in test [8], 30.5%; in test [9], 4.9%; in test [10], 17.7%.
With `NCCc1c[nH]c2ccc(O)cc12`, the inhibition was -6.38% in [1] (Hit No); -8.18% in [2]; 20.7% in [3] (Hit No); 21.8% in [4] (Hit No); 1.92% in [5] (Hit No); -6.88% in [6] (Hit No). Moreover, the inhibition is -2.75% in test [7] (Hit No), 2.2% in test [8], 5.88% in test [9] and 9.75% in [10].
Take `O=C(Nc1ccc(S(=O)(=O)Nc2nccs2)cc1)C(c1ccccc1)c1ccccc1`: the inhibition in [1] (Hit No) amounted to 7.67%; in [2] it was 3.78%; in test [3] (Hit No), 52.5%; in [4] (Hit No) it was 34%; in test [5] (Hit No) it was 17.9%; in test [6] (Hit No) it was 66%. Moreover, the inhibition in test [7] (Hit No) is -6.39%; in [8], 80.2%; in [9], -2.51%; in test [10] it was -1.11%.
On to `FC(F)(F)Oc1ccc(-c2ccc3nnc(C(F)(F)F)n3c2)cc1`, for which the inhibition in test [1] (Hit No) was -3.97%; in [2], -4.54%; in [3] (Hit No), -4.99%; in test [4] (Hit No), 7.52%; in [5] (Hit No) it was 27.8%; in test [6] (Hit No), 3.41%. In addition, the inhibition in test [7] (Hit No) was -7.36%; in [8], -0.755%; in test [9], 0.158%; in [10] it was -5.19%.
Consider `CN1CCC(c2c[nH]c3ccc(O)cc23)CC1`, for which the inhibition in test [1] (Hit No) is -3.74%; in [2] it was -5.58%; in test [3] (Hit No), 22.5%; in [4] (Hit No) it was -0.341%; in test [5] (Hit No) it was 12.9%; in test [6] (Hit No), 8.69%. The inhibition is -0.678% in [7] (Hit No), -5.79% in test [8], -2.51% in test [9] and -2.39% in test [10].
Take `Cc1ccc(C(C)(O)c2nc3ccccc3s2)c(C)c1` (stereo not given): the inhibition in test [1] (Hit No) was 9.99%; in test [2], -8.45%; in test [3] (Hit No), 14.6%; in test [4] (Hit No), 10.5%; in [5] (Hit No), 8.52%; in test [6] (Hit No), 0.731%. The inhibition in test [7] (Hit No) worked out at 2.68%; in [8], 0.661%; in [9], 7.8%; in test [10] it was 11%.
Consider `CCC(C)(C)/N=C(\NC#N)Nc1cccnc1`, for which the inhibition in test [1] (Hit No) was -2.33%; in test [2], -3.3%; in test [3] (Hit No), 5.61%; in test [4] (Hit No), 6.03%; in [5] (Hit No), 21.2%; in [6] (Hit No) it was 4.69%. The inhibition in test [7] (Hit No) was -5.35%; in [8] it was 4.93%; in test [9], 1.64%; in test [10], -1.62%.
For `Nc1nc2cc(-c3cc(Cl)ccc3Oc3cc(F)c(S(=O)(=O)Nc4ncns4)cc3F)ccc2[nH]1`, the inhibition in test [1] (Hit No) turned out to be 4.45%; in test [2] it was 1.83%; in test [3] (Hit No), 33.8%; in test [4] (Hit No) it was 20.7%; in [5] (Hit No) it was 6.35%; in [6] (Hit No) it was 38.8%. For the same compound, the inhibition in [7] (Hit No) was -2.14%; in [8], 39.3%; in test [9] it was 6.97%; in test [10], -7.23%.
For `COc1ccc(CCCN2CCC(COC(c3ccccc3)c3ccccc3)CC2)cc1`, the inhibition is 9.31% in test [1] (Hit No); -1.12% in [2]; 47.6% in [3] (Hit No); 47.2% in test [4] (Hit No); 13.8% in test [5] (Hit No); 49.2% in test [6] (Hit No). The inhibition was -0.567% in test [7] (Hit No), 35% in test [8], 4.75% in test [9] and 8.06% in [10].
For the compound `COc1ccc(NC(=O)c2ccc(-c3ccc(-c4noc(C)n4)cc3C)cc2)cc1OCCN(C)C`, the inhibition in [1] (Hit No) was -6.46%; in test [2], 2%; in test [3] (Hit Yes) it was 101%; in [4] (Hit Yes), 83.7%; in test [5] (Hit No) it was 8.82%; in test [6] (Hit Yes), 98%. For the same compound, the inhibition in test [7] (Hit No) is -3.51%; in test [8], 104%; in test [9], 1.34%; in test [10] it was -1.11%.
On to `O=C(NS(=O)(=O)N1CCC1)c1cc(C2CC2)c(OCC23CC4CC(CC(C4)C2)C3)cc1F`, for which the inhibition was 98.5% in test [1] (Hit Yes); 7.9% in test [2]; 79.6% in test [3] (Hit Yes); 60.8% in test [4] (Hit No); 56.7% in [5] (Hit Yes); 87.3% in test [6] (Hit Yes). Also, the inhibition in test [7] (Hit Yes) was 93.6%; in [8], 93%; in test [9], 7.57%; in [10], 17.5%.

Source of the values: ChEMBL document CHEMBL5665443, “Enzyme Inhibitor Single Concentration assay results for EUbOPEN Chemogenomics Library” (2024).
